Assay results: patent publication US3998843A (priority 1972, dated 1976)

Legend:
[1] = tested on: constriction of the pupil in the eye of the mouse; assay: Mouse miosis test of Schneider; format: in vivo; settings: for Potency, Mouse Miosis: SC, relative to neostigmine (1.0); for in vivo potency versus neostigmine: mouse miosis, in words
Description: (§1) In vivo testing was carried out employing the mouse miosis test of Schneider R, J. Pharm. Pharmacol. 22, 298 (1970) in which antiacetylcholinesterases induce constriction of the pupil in the eye of the mouse, and the rat chromodacryorrhoea test of Burgen A.S.V.Brit.J.Pharmacol. 4; 185 (1949) in which antiacetylcholinesterases potentiate the ability of acetylcholine to provoke red tears in rats. Both tests enable the potency and duration of action of antiacetylcholinesterases to be assessed.

[2] = tested on: tubocurarine-induced muscle blockade; assay: Reversal of tubocurarine-induced muscle blockade in cats (anterior tibialis twitch); format: in vivo; settings: Felis catus, iv; Cat; injected into the femoral vein; read-out: Dose necessary to produce maximum anti-curare effect
Description: (§2) D-Tubocurarine is used clinically to produce relaxation of skeletal muscles in patients undergoing certain surgical procedures. Following the completion of surgery antiacetylcholinesterases are used to reverse this relaxation. Experiments have been carried out to measure the ability of the compounds of the invention to reverse tubocurarine-induced muscle blockade in rats and cats.
(§3) The method was based on that of Zaimis E, J. Physiol 122, 238 (1953) in which animals were anaesthetised and the left hind limb clamped ridigly in a horizontal position with the tendon of the anterior tibialis muscle attached to a flat spring myograph. Twitches of the anterior tibialis muscle were induced by supramaximal electrical stimulation of the tibial nerve and recorded on a strip recorder. Drugs dissolved in 0.9% saline were injected into the femoral vein. During an experiment the dose of tubocurarine necessary to establish a partial (80 to 90%) blockade of neuromuscular transmission was established an anticholinisterase drugs were subsequently injected at the time of maximum blockade. Recovery achieved after the administration of an antiacetylcholinesterase was compared with the recovery after tubocurarine alone.

[3] = Intravenous LD50 in rats and therapeutic ratio; format: in vivo, rat; settings: for margin of safety when used in man: expected from the rat therapeutic ratios; for selectivity ratio / LD50: rat, in vivo, rats; for selectivity ratio: iv, ratio of LD50 to the dose giving maximum tubocurarine reversal; for LD50: intravenous
Description: The intravenous LD50 has been determined in rats for the three above mentioned drugs and from the results obtained the therapeutic ratios (defined as the ratio of LD50 to the dose giving maximum tubocurarine reversal) have been calculated: […]

[4] = tested on: tubocurarine-induced muscle blockade; assay: Reversal of tubocurarine-induced muscle blockade in rats (anterior tibialis twitch); format: in vivo; settings: iv; Rat; injected into the femoral vein; read-out: Dose necessary to produce maximum anti-curare effect
Description: as §2, §3

[5] = molecular target: T1, bovine erythrocyte acetylcholinesterase (Bos taurus, UniProt P23795); assay: In vitro anticholinesterase test, method of Ellmann (acetylthiocholine substrate, Lineweaver-Burk, Ki); format: biochemical; settings: for Ki: acetylthiocholine substrate, bovine erythrocyte acetylcholinesterase, competitive conditions; for antiacetylcholinesterase potency versus neostigmine: from Ki, in words
T1 construct: bovine erythrocyte acetylcholinesterase as enzyme; from tissue; host or cells: bovine erythrocytes
Description: In vitro testing of compounds was carried out by the method of Ellmann, Biochem. Pharmacol. 7, 88 (1961) with acetylthiocholine as substrate and bovine erythrocyte acetylcholinesterase as enzyme. Reaction rates were determined with and without inhibitor under competitive conditions (i.e. the substrate was added before the inhibitor). Results were plotted by the Lineweaver-Burk method and these plots were used to determine inhibitor constants (Ki values).

acetylcholinesterase [6] = molecular target: T2, acetylcholinesterase (Homo sapiens, UniProt P22303); assay: In vitro anticholinesterase activity, Michel method (acetylcholine substrate, washed human red cells as enzyme source); format: biochemical
T2 construct: washed human red cells as the source of acetylcholinesterase; from tissue; host or cells: washed human red cells
Description: Screening for anticholinesterase activity was carried out in vitro by the Michel method (J. Lab. Clin. Med 34, 1564, (1949)) using acetylcholine as substrate, washed human red cells as the source of acetylcholinesterase.

[7] = tested on: ability of acetylcholine to provoke red tears in rats; assay: Rat chromodacryorrhoea test of Burgen; format: in vivo; settings: for Potency, Rat chromod.: IP, relative to neostigmine (1.0); for in vivo potency versus neostigmine: rat chromodacryorrhoea, in words
Description: as §1

muscarinic activity = assay: Muscarinic activity in animal experimentation; format: in vivo
[8] = tested on: neuromuscular effects of tubocurarine; assay: Reversal of tubocurarine neuromuscular effects in man (human volunteers; anterior compartment leg muscle twitch); format: in vivo; settings: for recovery from tubocurarine block: I.V. in saline, 0.6 to 0.8 mg methobromide or 2.5 mg neostigmine (after 1.2 mg atropine)
Description: Substantiation for some of these estimates has come from the results of tests carried out in human volunteers. In these experiments contractions of the anterior compartment leg muscles were induced by supramaximal stimulation of the lateral popliteal nerve. After recording a period of control activity, tubocurarine was administered as a slow I.V. infusion until the muscle twitch height was reduced to approximately 50% of control levels. Three minutes later the anticholinesterase was administered (I.V. in saline) and the twitch height monitored until control levels were re-attained.

[9] = tested on: neuromuscular effects of tubocurarine; settings: in the clinic; cited from earlier work
acetylcholinesterase [10] = settings: after dosage; as thought by some workers; cited from earlier work

T2 sequence (P22303 other isoform, or with tags, fused parts or gaps): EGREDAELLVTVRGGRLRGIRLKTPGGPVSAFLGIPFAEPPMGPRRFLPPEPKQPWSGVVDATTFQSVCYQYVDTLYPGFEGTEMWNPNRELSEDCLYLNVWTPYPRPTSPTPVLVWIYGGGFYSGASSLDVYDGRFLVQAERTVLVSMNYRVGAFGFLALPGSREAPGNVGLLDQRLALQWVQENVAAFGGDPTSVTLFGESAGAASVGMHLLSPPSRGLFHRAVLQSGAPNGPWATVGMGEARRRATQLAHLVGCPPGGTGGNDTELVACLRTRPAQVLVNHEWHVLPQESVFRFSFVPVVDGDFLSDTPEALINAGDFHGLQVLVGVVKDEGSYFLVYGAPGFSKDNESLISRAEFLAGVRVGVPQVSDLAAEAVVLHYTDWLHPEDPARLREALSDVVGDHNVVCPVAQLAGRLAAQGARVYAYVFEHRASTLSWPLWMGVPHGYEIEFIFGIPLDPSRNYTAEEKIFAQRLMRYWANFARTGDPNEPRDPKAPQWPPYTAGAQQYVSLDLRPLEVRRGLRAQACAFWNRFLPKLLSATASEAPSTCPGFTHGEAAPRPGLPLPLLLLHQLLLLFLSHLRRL
T1 sequence (P23795 other isoform, or with tags, fused parts or gaps): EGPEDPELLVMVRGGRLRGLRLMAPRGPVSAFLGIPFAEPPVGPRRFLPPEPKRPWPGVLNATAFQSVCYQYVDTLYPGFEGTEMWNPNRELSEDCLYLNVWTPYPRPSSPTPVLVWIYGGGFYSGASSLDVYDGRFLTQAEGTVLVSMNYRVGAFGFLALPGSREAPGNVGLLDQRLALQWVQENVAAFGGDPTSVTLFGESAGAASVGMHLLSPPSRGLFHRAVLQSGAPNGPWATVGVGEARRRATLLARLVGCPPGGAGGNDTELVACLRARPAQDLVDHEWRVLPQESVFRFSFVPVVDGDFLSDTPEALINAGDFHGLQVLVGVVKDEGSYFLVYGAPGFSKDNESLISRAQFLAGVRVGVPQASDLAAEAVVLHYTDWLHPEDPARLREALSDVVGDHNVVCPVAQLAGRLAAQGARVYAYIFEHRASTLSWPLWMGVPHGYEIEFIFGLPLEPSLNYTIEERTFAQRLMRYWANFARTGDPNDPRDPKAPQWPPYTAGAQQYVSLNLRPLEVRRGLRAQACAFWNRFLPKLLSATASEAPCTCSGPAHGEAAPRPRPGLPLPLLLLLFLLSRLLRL

With `C[N+]1([C@@H]2CCCC[C@@H]2c2ccccc2)CCCC1` (relative stereo) [Example 1, cis-2-Phenyl-1-pyrrolidinocyclohexane Methiodide] the “Potency, Mouse Miosis” value [1] was 1.6, the “in vivo potency versus neostigmine” value [1] was “more potent than neostigmine” and the ED (maximum effect) [2] was 0.1 mg/kg. The “margin of safety when used in man” value [3] was “wide margin of safety”, the selectivity ratio [3] was 7.2 and the LD50 [3] was 1.5 mg/kg. For the same compound, the ED (maximum effect) [4] was 0.1 mg/kg, the Ki [5] was 7.7 nM and the “antiacetylcholinesterase potency versus neostigmine” value [5] was “more potent than neostigmine”. For the same compound, the IC50 (acetylcholinesterase [6]) was 200 nM, the “Potency, Rat chromod.” value [7] was 2.0 and the “in vivo potency versus neostigmine” value [7] was “more potent than neostigmine”. The muscarinic activity (muscarinic activity) was “less muscarinic activity”.

`CCCC(=O)Oc1cccc([C@@H]2CCCC[C@@H]2[N+]2(C)CCCC2)c1` (relative stereo) [Example 5, cis-2-(3-Butyryloxyphenyl)-1-pyrrolidinocyclohexane methiodide] gave an IC50 (acetylcholinesterase [6]) of 20 nM.

`Cc1ccc([C@H]2CCCC[C@H]2[N+]2(C)CCCC2)cc1` (relative stereo) [Example 7] showed an IC50 (acetylcholinesterase [6]) of 1000 nM.

`Cc1cccc([C@H]2CCCC[C@H]2[N+]2(C)CCCC2)c1` (relative stereo) [Example 8] gave an IC50 (acetylcholinesterase [6]) of 6000 nM.

Work on `C[N+]1([C@@H]2CCCC[C@@H]2c2ccc(Cl)cc2)CCCC1` (relative stereo) [Example 10] yielded an IC50 (acetylcholinesterase [6]) of 200 nM.

For `C[N+]1([C@@H]2CCC[C@@H]2c2cccc(O)c2)CCCC1` (relative stereo) [Example 14], the IC50 (acetylcholinesterase [6]) was 100 nM.

`C[N+]1([C@@H]2CCCC[C@@H]2c2cc(O)ccc2O)CCCC1` (relative stereo) [Example 16] showed an IC50 (acetylcholinesterase [6]) of 10 nM.

In the case of `C[N+]1([C@@H]2CCCC[C@H]2c2cccc(O)c2)CCCC1` (relative stereo) [trans-2-(3-hydroxyphenyl)-1-pyrrolidinocyclohexane methiodide, reference compound], the IC50 (acetylcholinesterase [6]) is reported as 100000 nM and the “activity of cis compound relative to trans compound (fold as active)” value (acetylcholinesterase [6]; Example 11 versus corresponding trans compound) is reported as roughly 5000 ×.

With `C[N+]1([C@@H]2CCCC[C@@H]2c2cccc(O)c2)CCCC1` (stereo in doubt) [Example 2, cis-2-(3-Hydroxyphenyl)-1-pyrrolidinocyclohexane Methobromide] the IC50 (acetylcholinesterase [6]) was 20 nM, the “incidence of muscarinic effects” value ([8]; 0.6 to 0.8 mg I.V. versus 2.5 mg neostigmine with 1.2 mg atropine) was “less than that produced by the neostigmine/atropine combination” and the “recovery from tubocurarine block” value [8] was “Prompt recovery”.

With `C[N+]1([C@H]2CCCC[C@H]2c2cccc(O)c2)CCCC1` (stereo in doubt) [Example 11, cis-2-(3-hydroxyphenyl)-1-pyrrolidinocyclohexane methiodide] the “Potency, Mouse Miosis” value [1] was 9.6, the “in vivo potency versus neostigmine” value [1] was “more potent than neostigmine” and the ED (maximum effect) [2] was 0.03 mg/kg. The “margin of safety when used in man” value [3] was “wide margin of safety”, the selectivity ratio [3] was 15 and the LD50 [3] was 0.18 mg/kg. The ED (maximum effect) [4] was 0.025 mg/kg, the Ki [5] was 7.3 nM and the “antiacetylcholinesterase potency versus neostigmine” value [5] was “more potent than neostigmine”. The IC50 (acetylcholinesterase [6]) was 20 nM, the “Potency, Rat chromod.” value [7] was 6.0 and the “in vivo potency versus neostigmine” value [7] was “more potent than neostigmine”. For the same compound, the muscarinic activity (muscarinic activity) was “less muscarinic activity”.

For `CC[N+](CC)(CCNC(=O)C(=O)NCC[N+](CC)(CC)Cc1ccccc1Cl)Cc1ccccc1Cl` [Ambenonium, reference compound], the “Potency, Mouse Miosis” value [1] was 0.06 and the “Potency, Rat chromod.” value [7] was 0.03.

In the case of `CC[N+](C)(C)c1cccc(O)c1` [Edrophonium, reference compound], the “Potency, Mouse Miosis” value [1] is reported as 0.04 and the “Potency, Rat chromod.” value [7] is reported as 0.09.

For `CN(C)C(=O)Oc1cccc([N+](C)(C)C)c1` [Neostigmine, reference compound], the “clinical intravenous dose to reverse the neuromuscular effects of tubocurarine” value [9] is given as 2.5 to 3.0 mg, the ED (maximum effect) [2] is given as 0.1 mg/kg and the LD50 [3] is given as 0.2 mg/kg. The ED (maximum effect) [4] was 0.1 mg/kg, the Ki [5] was 30 nM and the “recovery from tubocurarine block” value [8] was “Prompt recovery”. For the same compound, the “reversal of enzyme inhibition” value (acetylcholinesterase [10]) was “relatively slow reversal”.

In the case of `CN(C)C(=O)Oc1ccc[n+](C)c1` [Pyridostigmine, reference compound], the Ki [5] is given as 4800 nM and the “reversal of enzyme inhibition” value (acetylcholinesterase [10]) is given as “relatively slow reversal”.

In the case of `Nc1c2c(nc3ccccc13)CCCC2` [Tacrine, reference compound], the “Potency, Mouse Miosis” value [1] is reported as 0.21 and the “Potency, Rat chromod.” value [7] is reported as 0.38.
